Experimental data as given in ChEMBL document CHEMBL5291721, “A preclinical secondary pharmacology resource illuminates target-adverse drug reaction associations of marketed drugs” (Nat Commun, 2023).

Legend:
[1] = molecular target: T1, Muscarinic acetylcholine receptor M2 (Homo sapiens, UniProt P08172)
T1 sequence (P08172 whole entry): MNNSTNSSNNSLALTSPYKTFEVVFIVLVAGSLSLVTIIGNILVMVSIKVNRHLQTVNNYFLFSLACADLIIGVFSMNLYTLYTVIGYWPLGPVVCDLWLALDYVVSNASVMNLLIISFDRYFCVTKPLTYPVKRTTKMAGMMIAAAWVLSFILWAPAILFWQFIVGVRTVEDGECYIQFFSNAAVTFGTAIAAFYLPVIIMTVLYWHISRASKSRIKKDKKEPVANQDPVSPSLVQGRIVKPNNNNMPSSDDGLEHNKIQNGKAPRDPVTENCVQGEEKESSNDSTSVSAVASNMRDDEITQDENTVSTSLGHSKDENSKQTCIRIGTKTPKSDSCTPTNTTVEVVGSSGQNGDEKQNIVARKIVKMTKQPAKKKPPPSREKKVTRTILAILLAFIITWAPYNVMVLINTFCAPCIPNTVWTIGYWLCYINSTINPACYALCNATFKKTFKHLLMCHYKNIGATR

[2] = molecular target: T2, Progesterone receptor (Homo sapiens, UniProt P06401)
T2 sequence (P06401 whole entry): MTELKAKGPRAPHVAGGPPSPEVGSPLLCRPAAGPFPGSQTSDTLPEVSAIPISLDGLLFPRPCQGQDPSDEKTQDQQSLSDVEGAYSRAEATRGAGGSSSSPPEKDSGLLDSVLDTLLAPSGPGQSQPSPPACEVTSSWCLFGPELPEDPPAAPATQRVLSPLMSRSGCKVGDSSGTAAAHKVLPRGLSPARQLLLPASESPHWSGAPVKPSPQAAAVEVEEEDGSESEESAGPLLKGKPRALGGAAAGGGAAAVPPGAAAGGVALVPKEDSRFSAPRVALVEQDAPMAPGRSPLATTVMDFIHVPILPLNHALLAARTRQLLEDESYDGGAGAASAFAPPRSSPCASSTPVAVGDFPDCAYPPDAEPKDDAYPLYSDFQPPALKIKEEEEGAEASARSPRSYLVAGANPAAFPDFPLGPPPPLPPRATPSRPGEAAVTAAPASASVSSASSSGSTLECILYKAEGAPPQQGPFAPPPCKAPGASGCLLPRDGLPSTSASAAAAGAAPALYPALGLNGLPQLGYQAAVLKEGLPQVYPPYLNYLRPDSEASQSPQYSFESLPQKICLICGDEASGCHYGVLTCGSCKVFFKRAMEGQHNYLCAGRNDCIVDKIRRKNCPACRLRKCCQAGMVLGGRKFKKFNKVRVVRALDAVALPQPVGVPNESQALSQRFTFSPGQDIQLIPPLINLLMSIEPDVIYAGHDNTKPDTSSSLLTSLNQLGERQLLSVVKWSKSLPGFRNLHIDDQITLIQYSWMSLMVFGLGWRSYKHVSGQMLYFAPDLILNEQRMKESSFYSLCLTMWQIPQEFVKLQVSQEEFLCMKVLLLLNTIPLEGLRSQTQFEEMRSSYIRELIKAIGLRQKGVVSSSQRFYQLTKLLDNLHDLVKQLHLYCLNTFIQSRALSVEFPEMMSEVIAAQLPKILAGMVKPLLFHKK

[3] = molecular target: T3, 5-hydroxytryptamine receptor 1A (Homo sapiens, UniProt P08908)
T3 sequence (P08908 whole entry): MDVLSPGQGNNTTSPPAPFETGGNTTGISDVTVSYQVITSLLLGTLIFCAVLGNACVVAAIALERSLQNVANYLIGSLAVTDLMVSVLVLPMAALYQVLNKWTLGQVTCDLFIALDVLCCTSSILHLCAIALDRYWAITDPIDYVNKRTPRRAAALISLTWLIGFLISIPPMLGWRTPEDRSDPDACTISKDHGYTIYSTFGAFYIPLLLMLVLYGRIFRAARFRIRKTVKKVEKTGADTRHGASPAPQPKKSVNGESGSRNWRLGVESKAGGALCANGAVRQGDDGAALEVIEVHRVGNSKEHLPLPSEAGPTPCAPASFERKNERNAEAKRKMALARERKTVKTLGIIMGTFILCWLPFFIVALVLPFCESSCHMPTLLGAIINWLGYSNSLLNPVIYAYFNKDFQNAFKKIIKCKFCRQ

[4] = molecular target: Sodium-dependent noradrenaline transporter (Homo sapiens, UniProt P23975)
[5] = molecular target: T4, Alpha-2A adrenergic receptor (Homo sapiens, UniProt P08913)
T4 sequence (P08913 whole entry): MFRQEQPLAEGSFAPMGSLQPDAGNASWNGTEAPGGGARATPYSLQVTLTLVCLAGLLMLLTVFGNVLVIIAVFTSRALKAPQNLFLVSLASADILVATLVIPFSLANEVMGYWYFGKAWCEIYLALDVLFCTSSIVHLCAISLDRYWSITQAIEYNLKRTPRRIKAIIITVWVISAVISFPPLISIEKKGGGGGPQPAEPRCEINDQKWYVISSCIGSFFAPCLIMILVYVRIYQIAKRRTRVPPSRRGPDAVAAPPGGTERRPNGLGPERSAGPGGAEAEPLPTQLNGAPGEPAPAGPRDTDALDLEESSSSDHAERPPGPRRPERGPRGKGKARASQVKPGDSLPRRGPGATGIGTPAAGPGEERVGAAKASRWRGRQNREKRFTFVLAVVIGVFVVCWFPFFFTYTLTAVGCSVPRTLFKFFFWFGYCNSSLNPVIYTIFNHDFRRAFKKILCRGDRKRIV

[6] = molecular target: Sodium-dependent dopamine transporter (Homo sapiens, UniProt Q01959)
[7] = molecular target: Prostaglandin G/H synthase 1 (Homo sapiens, UniProt P23219); format: functional
[8] = molecular target: Vascular endothelial growth factor receptor 2 (Homo sapiens, UniProt P35968); format: functional
[9] = molecular target: T5, B2 bradykinin receptor (Homo sapiens, UniProt P30411)
T5 sequence (P30411 whole entry): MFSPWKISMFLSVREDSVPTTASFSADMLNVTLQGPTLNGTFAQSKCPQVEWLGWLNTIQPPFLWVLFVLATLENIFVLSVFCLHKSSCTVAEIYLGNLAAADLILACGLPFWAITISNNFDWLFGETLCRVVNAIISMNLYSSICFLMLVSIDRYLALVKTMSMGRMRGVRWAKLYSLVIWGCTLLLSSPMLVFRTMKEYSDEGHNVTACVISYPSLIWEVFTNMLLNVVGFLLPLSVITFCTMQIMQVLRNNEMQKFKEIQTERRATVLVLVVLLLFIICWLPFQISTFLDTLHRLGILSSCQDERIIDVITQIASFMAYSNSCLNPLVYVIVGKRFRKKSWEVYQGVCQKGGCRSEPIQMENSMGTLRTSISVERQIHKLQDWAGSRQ
Also: assay procedure not described here.

Sodium-dependent noradrenaline transporter, sequence (P23975 whole entry): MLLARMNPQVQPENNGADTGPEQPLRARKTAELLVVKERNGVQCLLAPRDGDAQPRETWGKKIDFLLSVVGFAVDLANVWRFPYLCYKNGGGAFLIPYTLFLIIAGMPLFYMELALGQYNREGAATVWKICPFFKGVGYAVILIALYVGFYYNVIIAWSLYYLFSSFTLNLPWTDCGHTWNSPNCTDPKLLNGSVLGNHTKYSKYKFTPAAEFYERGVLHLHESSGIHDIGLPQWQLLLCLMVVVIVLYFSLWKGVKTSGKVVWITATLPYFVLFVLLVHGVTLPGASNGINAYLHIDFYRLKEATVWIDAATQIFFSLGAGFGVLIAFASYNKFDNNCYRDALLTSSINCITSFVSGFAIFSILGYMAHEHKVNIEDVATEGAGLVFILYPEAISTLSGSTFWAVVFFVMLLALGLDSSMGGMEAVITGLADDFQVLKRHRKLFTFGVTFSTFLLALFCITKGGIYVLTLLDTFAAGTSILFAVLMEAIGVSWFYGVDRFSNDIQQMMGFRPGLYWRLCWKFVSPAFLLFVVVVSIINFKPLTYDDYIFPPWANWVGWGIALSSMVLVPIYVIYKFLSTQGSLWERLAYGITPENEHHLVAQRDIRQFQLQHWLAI
Prostaglandin G/H synthase 1, sequence (P23219 whole entry): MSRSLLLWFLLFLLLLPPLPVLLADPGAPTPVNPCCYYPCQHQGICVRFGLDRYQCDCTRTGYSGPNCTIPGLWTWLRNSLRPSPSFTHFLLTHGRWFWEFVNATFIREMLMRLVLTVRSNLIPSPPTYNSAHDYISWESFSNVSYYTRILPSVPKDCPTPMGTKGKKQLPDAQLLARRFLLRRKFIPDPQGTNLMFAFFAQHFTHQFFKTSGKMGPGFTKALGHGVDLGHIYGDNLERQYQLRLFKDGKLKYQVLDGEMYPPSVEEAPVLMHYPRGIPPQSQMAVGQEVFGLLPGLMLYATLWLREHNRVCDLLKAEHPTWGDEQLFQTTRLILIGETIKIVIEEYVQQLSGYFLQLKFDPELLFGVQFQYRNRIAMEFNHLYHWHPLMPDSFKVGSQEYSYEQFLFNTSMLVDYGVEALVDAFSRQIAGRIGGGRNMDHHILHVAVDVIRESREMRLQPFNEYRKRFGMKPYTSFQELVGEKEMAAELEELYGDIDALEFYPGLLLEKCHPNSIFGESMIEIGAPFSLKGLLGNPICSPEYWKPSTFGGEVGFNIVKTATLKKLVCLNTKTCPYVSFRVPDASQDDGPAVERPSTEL
Sodium-dependent dopamine transporter, sequence (Q01959 whole entry): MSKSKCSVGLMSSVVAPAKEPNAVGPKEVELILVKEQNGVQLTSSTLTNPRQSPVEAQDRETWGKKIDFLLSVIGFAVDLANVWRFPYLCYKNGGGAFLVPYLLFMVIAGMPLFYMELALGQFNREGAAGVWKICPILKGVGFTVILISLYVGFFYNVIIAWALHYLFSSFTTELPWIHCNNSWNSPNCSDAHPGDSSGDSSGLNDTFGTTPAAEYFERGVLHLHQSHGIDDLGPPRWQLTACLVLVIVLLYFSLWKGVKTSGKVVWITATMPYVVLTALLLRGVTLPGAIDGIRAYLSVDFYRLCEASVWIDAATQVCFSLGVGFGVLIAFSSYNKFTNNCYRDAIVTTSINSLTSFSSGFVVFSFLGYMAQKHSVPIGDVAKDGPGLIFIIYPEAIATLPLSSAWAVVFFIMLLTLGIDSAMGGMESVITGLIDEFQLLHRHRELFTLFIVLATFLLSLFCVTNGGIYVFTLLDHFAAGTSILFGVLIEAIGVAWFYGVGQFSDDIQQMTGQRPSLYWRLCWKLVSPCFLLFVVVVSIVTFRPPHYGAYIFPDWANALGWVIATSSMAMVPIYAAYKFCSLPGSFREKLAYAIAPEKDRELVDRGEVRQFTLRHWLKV
Vascular endothelial growth factor receptor 2, sequence (P35968 whole entry): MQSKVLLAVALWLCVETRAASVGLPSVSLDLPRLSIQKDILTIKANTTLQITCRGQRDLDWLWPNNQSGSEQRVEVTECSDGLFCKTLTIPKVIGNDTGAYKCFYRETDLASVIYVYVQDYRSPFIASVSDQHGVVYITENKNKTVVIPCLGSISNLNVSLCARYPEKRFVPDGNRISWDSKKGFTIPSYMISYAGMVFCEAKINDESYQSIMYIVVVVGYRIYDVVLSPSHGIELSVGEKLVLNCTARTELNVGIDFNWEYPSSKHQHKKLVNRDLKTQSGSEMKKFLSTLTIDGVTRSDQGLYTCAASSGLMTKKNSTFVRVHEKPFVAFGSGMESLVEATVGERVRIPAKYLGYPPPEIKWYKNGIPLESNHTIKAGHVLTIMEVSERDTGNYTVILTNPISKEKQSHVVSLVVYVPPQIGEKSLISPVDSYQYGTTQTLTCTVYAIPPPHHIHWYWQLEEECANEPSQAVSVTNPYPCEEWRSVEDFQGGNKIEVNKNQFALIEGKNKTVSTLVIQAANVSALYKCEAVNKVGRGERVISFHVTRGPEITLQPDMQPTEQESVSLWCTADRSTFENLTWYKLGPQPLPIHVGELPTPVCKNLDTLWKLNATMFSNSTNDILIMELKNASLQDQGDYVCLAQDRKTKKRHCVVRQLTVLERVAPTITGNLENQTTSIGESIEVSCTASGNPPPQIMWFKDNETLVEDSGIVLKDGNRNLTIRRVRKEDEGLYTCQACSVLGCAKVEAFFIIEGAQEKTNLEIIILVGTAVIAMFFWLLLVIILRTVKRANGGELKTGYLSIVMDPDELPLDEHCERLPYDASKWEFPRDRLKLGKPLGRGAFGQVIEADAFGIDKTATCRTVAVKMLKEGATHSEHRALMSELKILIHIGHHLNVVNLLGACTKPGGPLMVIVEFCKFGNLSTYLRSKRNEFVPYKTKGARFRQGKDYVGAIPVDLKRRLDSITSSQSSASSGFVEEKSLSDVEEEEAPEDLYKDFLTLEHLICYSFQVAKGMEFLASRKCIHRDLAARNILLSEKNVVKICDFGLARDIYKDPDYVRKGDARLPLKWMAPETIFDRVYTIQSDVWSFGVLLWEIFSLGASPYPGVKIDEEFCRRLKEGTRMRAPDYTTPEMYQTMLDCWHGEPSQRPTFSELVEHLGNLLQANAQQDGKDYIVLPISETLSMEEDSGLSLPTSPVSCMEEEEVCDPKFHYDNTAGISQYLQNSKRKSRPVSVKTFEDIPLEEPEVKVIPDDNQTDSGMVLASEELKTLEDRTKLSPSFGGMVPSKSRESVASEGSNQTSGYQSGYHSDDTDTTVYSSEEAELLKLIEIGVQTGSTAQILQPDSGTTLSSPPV

Structure (SMILES)	AC50 [9]	AC50 [1]	AC50 [2]	AC50 [3]	AC50 [4]	AC50 [5]	AC50 [6]	other results
O=NN(CCCl)C(=O)NC1CCCCC1 [LOMUSTINE]		> 30 µM	> 30 µM	> 30 µM	> 30 µM	3.5 µM	> 30 µM	AC50 [7]: > 30 µM
CC(=O)Oc1ccccc1C(=O)O [ASPIRIN]	> 30 µM	> 30 µM	> 30 µM	> 30 µM	> 30 µM	> 30 µM	> 30 µM	AC50 [8]: > 30 µM
O=C(O)COC(=O)Cc1ccccc1Nc1c(Cl)cccc1Cl [ACECLOFENAC]	> 30 µM							
C[C@H](Nc1ncnc2[nH]cnc12)c1cc2cccc(Cl)c2c(=O)n1-c1ccccc1 [DUVELISIB]		> 30 µM	> 30 µM	> 30 µM	> 30 µM	> 30 µM	> 30 µM	AC50 [7]: > 30 µM
CN(C)CCc1c[nH]c2ccc(CS(=O)(=O)N3CCCC3)cc12 [ALMOTRIPTAN]	> 30 µM							
CCN(CC)CCn1c(=O)c(Cc2ccc(OC)cc2)nc2ccccc21 [CAROVERINE]	> 30 µM							
O=C(Cc1cccs1)N[C@@H]1C(=O)N2C(C(=O)[O-])=C(C[n+]3ccccc3)CS[C@H]12 [CEPHALORIDINE]		> 30 µM	> 30 µM	> 30 µM	> 30 µM	> 30 µM	> 30 µM	AC50 [7]: > 30 µM
COC(=O)CCc1ccc(OCC(O)CNC(C)C)cc1 (stereo unspecified) [ESMOLOL]	> 30 µM							
NCCCCCC(=O)O [AMINOCAPROIC ACID]	> 10 µM							
CC(C)NCC(O)COc1ccc(CC(N)=O)cc1 (stereo unspecified) [ATENOLOL]	> 30 µM							
O=C(O)[C@@H](S)[C@@H](S)C(=O)O		> 30 µM	> 30 µM	> 30 µM	> 30 µM	> 30 µM	> 30 µM	AC50 [7]: > 30 µM
C[C@@H](CN1CC(=O)NC(=O)C1)N1CC(=O)NC(=O)C1 [DEXRAZOXANE]		> 30 µM	> 30 µM	> 30 µM	> 30 µM	> 30 µM	> 30 µM	AC50 [7]: 5.98 µM

Further lines, with some results ahead:

AC50 [9]	Structure (SMILES)	AC50 [1]	AC50 [2]	AC50 [3]	AC50 [4]	AC50 [5]	AC50 [6]	other results
> 10 µM	CCC1(c2ccccc2)C(=O)NCNC1=O [PRIMIDONE]							
> 30 µM	CC(=O)SCC(Cc1ccccc1)C(=O)NCC(=O)OCc1ccccc1 (stereo unspecified) [RACECADOTRIL]							
> 10 µM	CNC1(C)C2CCC(C2)C1(C)C (stereo unspecified) [MECAMYLAMINE]							
> 30 µM	CC(=O)NC[C@H]1CN(c2ccc(N3CCOCC3)c(F)c2)C(=O)O1 [LINEZOLID]							
> 30 µM	C[C@H](Cn1cnc2c(N)ncnc21)OCP(=O)(O)O [TENOFOVIR ANHYDROUS]							
> 30 µM	OCCOCCN1CCN(C(c2ccccc2)c2ccc(Cl)cc2)CC1 (stereo unspecified) [HYDROXYZINE]							
> 30 µM	Nc1nnc(-c2cccc(Cl)c2Cl)c(N)n1 [LAMOTRIGINE]							
